Measured values: BindingDB's records for doi:10.1016/s0024-3205(97)00885-0 (Eli Lilly, 1997)

Assays:
[1] = biological target: 5-hydroxytryptamine receptor 2A (Homo sapiens, UniProt P28223)
[2] = biological target: 5-hydroxytryptamine receptor 1D (Homo sapiens, UniProt P28221)
[3] = biological target: 5-hydroxytryptamine receptor 2B (Homo sapiens, UniProt P41595)
[4] = biological target: 5-hydroxytryptamine receptor 7 (Homo sapiens, UniProt P34969)
D(2) dopamine receptor = D(2) dopamine receptor (Rattus norvegicus, UniProt P61169)
[5] = biological target: T1, Alpha-1A adrenergic receptor (Rattus norvegicus, UniProt P43140)
T1 sequence (P43140 whole entry): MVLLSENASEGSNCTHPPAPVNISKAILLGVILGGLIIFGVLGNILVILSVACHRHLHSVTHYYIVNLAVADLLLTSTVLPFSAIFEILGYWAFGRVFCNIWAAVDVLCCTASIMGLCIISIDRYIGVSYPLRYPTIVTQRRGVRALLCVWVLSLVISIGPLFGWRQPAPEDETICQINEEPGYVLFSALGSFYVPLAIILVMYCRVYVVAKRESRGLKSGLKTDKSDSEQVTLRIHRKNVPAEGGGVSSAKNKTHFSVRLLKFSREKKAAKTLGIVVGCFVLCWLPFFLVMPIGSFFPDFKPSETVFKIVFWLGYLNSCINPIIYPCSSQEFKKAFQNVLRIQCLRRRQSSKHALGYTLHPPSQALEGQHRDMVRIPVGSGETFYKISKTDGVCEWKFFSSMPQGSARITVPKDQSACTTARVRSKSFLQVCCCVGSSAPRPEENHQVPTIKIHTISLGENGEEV

[6] = biological target: Gamma-aminobutyric acid receptor subunit alpha-1 (Rattus norvegicus, UniProt P62813)
[7] = biological target: T2, 5-hydroxytryptamine receptor 1F (Homo sapiens, UniProt P30939)
T2 sequence (P30939 whole entry): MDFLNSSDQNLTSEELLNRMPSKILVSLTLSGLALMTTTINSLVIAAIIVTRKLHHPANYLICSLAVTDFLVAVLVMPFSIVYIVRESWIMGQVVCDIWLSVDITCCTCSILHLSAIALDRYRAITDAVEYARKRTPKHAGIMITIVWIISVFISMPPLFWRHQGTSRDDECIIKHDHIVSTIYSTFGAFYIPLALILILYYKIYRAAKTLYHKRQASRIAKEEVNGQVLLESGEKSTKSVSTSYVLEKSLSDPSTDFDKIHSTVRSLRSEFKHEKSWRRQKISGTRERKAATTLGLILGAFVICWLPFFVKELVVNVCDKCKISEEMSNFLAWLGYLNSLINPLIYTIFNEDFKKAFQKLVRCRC

[8] = biological target: T3, Alpha-2C adrenergic receptor (Rattus norvegicus, UniProt P22086)
T3 sequence (P22086 whole entry): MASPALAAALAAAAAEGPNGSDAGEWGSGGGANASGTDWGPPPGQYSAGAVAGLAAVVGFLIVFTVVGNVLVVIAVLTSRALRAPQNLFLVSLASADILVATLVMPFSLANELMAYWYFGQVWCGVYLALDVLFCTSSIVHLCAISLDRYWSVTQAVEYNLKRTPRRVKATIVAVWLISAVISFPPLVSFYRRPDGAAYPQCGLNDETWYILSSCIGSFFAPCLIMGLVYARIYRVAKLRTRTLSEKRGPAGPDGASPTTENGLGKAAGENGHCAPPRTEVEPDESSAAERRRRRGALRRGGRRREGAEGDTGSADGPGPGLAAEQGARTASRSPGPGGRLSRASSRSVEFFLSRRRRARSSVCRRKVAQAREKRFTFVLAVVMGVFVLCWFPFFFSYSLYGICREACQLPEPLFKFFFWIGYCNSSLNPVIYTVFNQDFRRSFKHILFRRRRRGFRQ

[9] = biological target: T4, Muscarinic acetylcholine receptor M2 (Rattus norvegicus, UniProt P10980)
T4 sequence (P10980 whole entry): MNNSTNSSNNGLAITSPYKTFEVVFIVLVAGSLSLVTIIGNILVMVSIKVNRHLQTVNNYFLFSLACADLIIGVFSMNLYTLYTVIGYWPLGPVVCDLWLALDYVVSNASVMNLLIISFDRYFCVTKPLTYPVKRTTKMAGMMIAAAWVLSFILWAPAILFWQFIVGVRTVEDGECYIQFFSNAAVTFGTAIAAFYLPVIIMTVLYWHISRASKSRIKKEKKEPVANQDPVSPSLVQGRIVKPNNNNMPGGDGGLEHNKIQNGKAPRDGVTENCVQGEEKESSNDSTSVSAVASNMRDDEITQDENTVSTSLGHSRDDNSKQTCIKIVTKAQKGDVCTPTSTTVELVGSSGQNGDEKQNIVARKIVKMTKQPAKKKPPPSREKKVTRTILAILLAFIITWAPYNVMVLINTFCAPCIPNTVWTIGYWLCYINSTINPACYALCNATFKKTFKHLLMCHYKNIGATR

D(1A) dopamine receptor = D(1A) dopamine receptor (Rattus norvegicus, UniProt P18901)
Histamine H1 receptor = Histamine H1 receptor (Rattus norvegicus, UniProt P31390)
[10] = biological target: Beta-2 adrenergic receptor (Rattus norvegicus, UniProt P10608)
[11] = biological target: T5, 5-hydroxytryptamine receptor 2C (Homo sapiens, UniProt P28335)
T5 sequence (P28335 whole entry): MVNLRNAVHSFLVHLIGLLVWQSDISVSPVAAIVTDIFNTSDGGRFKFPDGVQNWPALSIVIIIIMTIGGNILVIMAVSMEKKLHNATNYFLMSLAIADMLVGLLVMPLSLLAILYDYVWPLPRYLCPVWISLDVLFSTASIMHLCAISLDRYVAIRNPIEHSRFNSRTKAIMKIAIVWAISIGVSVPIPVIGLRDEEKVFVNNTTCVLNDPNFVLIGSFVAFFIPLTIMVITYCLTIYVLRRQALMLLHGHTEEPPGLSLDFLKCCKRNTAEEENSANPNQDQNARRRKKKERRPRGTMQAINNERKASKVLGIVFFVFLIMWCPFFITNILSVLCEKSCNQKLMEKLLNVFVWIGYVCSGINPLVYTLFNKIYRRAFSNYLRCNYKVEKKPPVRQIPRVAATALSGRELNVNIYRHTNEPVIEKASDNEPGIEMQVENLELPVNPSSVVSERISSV

5-hydroxytryptamine receptor 7, sequence (P34969 whole entry): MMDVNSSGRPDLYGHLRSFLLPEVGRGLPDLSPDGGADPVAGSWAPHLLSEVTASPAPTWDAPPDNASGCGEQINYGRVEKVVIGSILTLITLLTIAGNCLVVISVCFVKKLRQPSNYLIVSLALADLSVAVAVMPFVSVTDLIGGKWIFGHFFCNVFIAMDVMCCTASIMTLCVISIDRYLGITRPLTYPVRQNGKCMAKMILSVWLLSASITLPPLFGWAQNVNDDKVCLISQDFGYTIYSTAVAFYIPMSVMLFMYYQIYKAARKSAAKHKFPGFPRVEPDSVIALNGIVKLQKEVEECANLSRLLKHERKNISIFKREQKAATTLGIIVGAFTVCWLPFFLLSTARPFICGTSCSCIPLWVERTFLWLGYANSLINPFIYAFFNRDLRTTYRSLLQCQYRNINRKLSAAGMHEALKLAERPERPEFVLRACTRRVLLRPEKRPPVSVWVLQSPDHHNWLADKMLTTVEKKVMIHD
Gamma-aminobutyric acid receptor subunit alpha-1, sequence (P62813 whole entry): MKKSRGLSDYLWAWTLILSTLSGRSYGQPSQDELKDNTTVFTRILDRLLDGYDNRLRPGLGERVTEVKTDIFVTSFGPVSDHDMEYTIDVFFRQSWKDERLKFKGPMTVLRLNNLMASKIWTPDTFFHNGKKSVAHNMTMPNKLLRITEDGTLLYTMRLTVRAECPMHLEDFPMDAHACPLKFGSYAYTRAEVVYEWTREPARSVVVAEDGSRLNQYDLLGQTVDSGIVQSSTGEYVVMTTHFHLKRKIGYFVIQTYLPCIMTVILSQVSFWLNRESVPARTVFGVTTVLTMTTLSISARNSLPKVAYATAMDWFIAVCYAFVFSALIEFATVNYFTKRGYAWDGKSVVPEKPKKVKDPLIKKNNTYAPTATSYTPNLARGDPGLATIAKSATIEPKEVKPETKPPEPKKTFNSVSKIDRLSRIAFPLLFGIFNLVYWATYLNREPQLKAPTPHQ
5-hydroxytryptamine receptor 2B, sequence (P41595 whole entry): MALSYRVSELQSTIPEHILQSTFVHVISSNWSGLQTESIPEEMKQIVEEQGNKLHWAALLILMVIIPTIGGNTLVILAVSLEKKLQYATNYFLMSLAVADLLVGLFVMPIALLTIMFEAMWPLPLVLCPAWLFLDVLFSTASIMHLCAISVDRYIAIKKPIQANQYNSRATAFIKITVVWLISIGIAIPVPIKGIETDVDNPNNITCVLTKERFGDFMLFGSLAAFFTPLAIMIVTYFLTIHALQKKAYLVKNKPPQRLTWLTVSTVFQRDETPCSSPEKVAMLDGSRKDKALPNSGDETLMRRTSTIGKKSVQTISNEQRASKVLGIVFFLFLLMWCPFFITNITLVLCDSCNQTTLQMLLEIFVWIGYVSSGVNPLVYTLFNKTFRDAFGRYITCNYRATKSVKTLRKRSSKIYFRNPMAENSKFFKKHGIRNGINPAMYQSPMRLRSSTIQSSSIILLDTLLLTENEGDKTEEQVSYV
Histamine H1 receptor, sequence (P31390 whole entry): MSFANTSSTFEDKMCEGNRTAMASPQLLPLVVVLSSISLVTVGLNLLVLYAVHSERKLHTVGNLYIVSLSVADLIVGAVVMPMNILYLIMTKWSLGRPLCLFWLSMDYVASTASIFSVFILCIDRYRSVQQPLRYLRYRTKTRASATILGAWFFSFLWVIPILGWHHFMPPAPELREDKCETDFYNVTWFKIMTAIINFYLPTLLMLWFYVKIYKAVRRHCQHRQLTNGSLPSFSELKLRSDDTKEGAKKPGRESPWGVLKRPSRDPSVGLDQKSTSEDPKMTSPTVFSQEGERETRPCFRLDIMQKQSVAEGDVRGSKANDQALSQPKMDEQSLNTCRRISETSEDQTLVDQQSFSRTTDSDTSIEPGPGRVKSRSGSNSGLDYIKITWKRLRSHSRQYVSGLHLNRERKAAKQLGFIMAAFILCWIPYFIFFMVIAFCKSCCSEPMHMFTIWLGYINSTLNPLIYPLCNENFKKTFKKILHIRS
5-hydroxytryptamine receptor 2A, sequence (P28223 whole entry): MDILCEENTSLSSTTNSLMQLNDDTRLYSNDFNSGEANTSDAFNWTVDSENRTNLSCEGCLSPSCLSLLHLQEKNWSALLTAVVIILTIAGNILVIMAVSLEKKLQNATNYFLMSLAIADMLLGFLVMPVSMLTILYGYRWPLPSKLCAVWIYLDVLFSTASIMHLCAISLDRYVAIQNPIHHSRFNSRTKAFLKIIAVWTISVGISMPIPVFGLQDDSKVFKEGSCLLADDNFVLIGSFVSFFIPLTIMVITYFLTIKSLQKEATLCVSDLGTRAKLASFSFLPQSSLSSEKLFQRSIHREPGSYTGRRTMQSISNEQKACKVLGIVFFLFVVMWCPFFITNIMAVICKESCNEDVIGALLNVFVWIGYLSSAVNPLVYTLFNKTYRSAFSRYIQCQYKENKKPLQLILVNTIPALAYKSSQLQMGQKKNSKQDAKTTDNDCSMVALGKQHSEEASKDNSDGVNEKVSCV
D(1A) dopamine receptor, sequence (P18901 whole entry): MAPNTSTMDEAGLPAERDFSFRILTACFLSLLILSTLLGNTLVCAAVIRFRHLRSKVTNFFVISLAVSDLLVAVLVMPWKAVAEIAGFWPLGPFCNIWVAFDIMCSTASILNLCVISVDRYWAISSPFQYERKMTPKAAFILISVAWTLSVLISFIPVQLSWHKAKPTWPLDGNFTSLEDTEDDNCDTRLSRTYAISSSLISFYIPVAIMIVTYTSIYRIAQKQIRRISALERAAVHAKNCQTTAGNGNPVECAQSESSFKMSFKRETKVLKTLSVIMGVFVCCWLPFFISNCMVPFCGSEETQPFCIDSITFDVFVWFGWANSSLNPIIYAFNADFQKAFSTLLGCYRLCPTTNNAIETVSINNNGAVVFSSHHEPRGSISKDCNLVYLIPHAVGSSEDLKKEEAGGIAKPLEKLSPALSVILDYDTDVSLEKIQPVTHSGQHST
D(2) dopamine receptor, sequence (P61169 whole entry): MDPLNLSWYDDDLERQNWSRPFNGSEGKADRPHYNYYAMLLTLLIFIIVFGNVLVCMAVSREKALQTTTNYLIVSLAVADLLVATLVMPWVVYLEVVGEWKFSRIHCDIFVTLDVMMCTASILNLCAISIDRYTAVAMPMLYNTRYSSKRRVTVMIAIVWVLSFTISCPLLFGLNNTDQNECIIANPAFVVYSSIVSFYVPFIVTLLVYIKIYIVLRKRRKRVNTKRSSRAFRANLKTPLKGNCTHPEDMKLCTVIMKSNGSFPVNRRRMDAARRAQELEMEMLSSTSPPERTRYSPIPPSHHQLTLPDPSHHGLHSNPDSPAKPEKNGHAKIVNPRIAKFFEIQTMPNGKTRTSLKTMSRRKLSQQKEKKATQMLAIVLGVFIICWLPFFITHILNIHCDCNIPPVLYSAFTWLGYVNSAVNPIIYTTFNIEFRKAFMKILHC
5-hydroxytryptamine receptor 1D, sequence (P28221 whole entry): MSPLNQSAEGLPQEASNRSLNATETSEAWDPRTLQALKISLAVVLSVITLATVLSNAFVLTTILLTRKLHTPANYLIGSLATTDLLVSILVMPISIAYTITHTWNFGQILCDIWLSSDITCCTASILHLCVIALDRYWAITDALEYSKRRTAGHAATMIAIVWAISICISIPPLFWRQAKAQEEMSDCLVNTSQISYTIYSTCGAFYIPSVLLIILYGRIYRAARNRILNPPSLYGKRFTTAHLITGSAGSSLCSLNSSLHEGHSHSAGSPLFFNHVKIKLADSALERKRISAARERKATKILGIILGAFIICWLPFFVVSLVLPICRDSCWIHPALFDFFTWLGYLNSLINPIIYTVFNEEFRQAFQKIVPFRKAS
Beta-2 adrenergic receptor, sequence (P10608 whole entry): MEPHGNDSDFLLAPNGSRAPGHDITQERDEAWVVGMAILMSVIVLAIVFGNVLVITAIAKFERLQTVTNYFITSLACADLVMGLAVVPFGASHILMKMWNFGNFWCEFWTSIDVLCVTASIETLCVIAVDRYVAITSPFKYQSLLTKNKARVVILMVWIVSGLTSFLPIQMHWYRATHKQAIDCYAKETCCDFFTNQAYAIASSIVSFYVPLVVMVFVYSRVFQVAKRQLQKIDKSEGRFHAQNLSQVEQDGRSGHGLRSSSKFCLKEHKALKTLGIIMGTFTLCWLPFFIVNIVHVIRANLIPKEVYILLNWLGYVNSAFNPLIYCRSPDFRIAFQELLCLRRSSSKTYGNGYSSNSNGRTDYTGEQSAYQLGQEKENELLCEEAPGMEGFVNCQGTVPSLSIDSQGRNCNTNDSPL

In the case of `CN(C)C1CCc2[nH]c3ccc(NC(=O)c4ccc(F)cc4)cc3c2C1` (centres undefined) [NSC_5311097], the Ki [1] is reported as 3.94 µM, the Ki [2] is reported as 0.575 µM and the Ki [3] is reported as 1.69 µM. The Ki [4] was 4.85 µM, the Ki (D(2) dopamine receptor) was over 10 µM and the Ki [5] was 5.06 µM. It also gave a Ki [6] of over 10 µM, a Ki [7] of 0.006 µM and a Ki [8] of 3.69 µM. It also gave a Ki [9] of over 10 µM, a Ki (D(1A) dopamine receptor) of over 10 µM and a Ki (Histamine H1 receptor) of over 10 µM. It also gave a Ki [10] of over 10 µM and a Ki [11] of 3.5 µM.
